The values below come from US20190202823A1, “N-SULFONYLATED PYRAZOLO[3,4-b]PYRIDIN-6-CARBOXAMIDES AND METHOD OF USE” (AbbVie S.à.r.l., priority 2015, published 2019).

Where two headings read alike, the source gives them in different places.

One assay concerns the target T1, ΔF508-CFTR (Homo sapiens, UniProt P13569, DEL508-508).
T1 construct: host or cells: CFBE41o- cells, doxycycline-inducible expression
In words: CFTR cell surface levels using HRP-tagged ΔF508-CFTR expressing CFBE cells, intrinsic corrector capacity. Details: % Activation: concentration or dose not given beside the values. The note with it: HRP-tagged ΔF508-CFTR expressing CFBE41o- cells; compounds alone (intrinsic corrector capacity); 20 hours at 33° C. It is filed as cell-based. From the text:
Measuring CFTR Cell Surface Levels Using HRP-Tagged ΔF508-CFTR Expressing CFBE Cells
The HRP-tagged ΔF508-CFTR cell assay measures the expression of CFTR-ΔF508 at the plasma membrane. CFTR-ΔF508 has a folding defect leading to absence of protein at the plasma membrane. This assay is used to evaluate the capacity of compounds to increase the expression of CFTR-ΔF508 at the plasma membrane. […] When HRP-tagged ΔF508-CFTR is present at the plasma membrane, the HRP enzyme activity can be measured. The amount of CFTR-ΔF508 that can be rescued to the plasma membrane is correlated with the amount of functional enzyme that can be measured.
There are several ways to measure the capacity of compounds to rescue CFTR-ΔF508 to the plasma membrane; either compounds are evaluated on their own and the impact on plasma membrane levels is measured or compounds are evaluated in combination with a co-corrector, i.e. a compound that rescues CFTR-ΔF508 to the plasma membrane but rescue can be enhanced by addition of compounds due to a complementary mode of action.
Activity of Compounds for their Intrinsic Corrector Capacity:
On day four, L test compounds diluted in PBS were added to the plates at a final DMSO concentration of 0.1%. All compound plates contained negative controls (DMSO) and positive controls ([…] corrector, 3-[(2R,4R)-4-({[1-(2,2-difluoro-1,3-benzodioxol-5-yl)cyclopropyl]carbonyl}amino)-7-methoxy-3,4-dihydro-2H-chromen-2-yl]benzoic acid). Cell plates were incubated at 33° C., 5% CO2 for 20 hours. […] After incubation for 15 minutes in the dark, chemiluminescence was measured using a plate reader (EnVision®, Perkin Elmer). Raw data were normalized to percentage activity values using the equation: 100×(Sample−Negative control)/(Positive control−Negative Control).

A further assay concerns the target T2, CFTR ΔF508 (Homo sapiens, UniProt P13569, DEL508-508).
T2 construct: bronchial epithelial cells isolated from CF patients homozygous for the CFTR ΔF508 mutation; McGill University; Asterand; University of North Carolina hAEC-CF; host or cells: primary human bronchial epithelial cells from CF patients homozygous for ΔF508
Nature of the assay: Chronic TECC assay, primary bronchial epithelial cells from CF patients homozygous for CFTR ΔF508. The note with it: for EC50: chronic TECC, with co-corrector and potentiator, AUC = full area under the curve upon forskolin stimulation; for activity at 3 µM: read-out: % Activity at 3 μM (AUC**). In kind it is cell-based. As for the experimental part:
The TECC (Tranepithelial Clamp Circuit, EP-design) assay measures the functionality of the cystic fibrosis Transmembrane Conductance regulator (CFTR) by measuring the short circuit current (Isc) generated over the basolateral and apical membrane of lung epithelial cells. In TECC the transepithelial potential PD and transepithelial resistance (Rt) are measured in an open circuit and transformed to Ieq using Ohm's law. 24 Wells can be measured simultaneously allowing a higher throughput compared to Ussing chambers.
For this purpose, bronchial epithelial cells isolated from CF patients homozygous for the CFTR ΔF508 mutation (hAEC-CF, Epithelix, Geneva, Switzerland; McGill University, Montreal, Qc; Asterand, Detroit, Mich.; University of North Carolina, Chapel Hill, N.C.) are plated on type IV collagen-coated Transwell® supports (Costar).
For electrophysiological recording of the “chronic” experiments, the human airway epithelia are mounted in the TECC heating plate for electrophysiological measurement and kept at 37° C. The epithelia are bathed in a NaCl-Ringer solution (120 mM NaCl, 25 mM NaHCO3, 1.2 mM CaCl2), 1.2 mM MgCl2, 0.8 mM KH2PO4, 0.8 mM K2HP04, pH 7.4, 5 mM glucose) on both the basolateral and apical sides. Test compounds (corrector, co-corrector, 4-[(2R,4R)-4-({[1-(2,2-difluoro-1,3-benzodioxol-5-yl)cyclopropyl]carbonyl}amino)-7-(difluoromethoxy)-3,4-dihydro-2H-chromen-2-yl]benzoic acid, and potentiator, N-(3-carbamoyl-5,5,7,7-tetramethyl-4,7-dihydro-5H-thieno[2,3-c]pyran-2-yl)-1H-pyrazole-5-carboxamide), are re-added to the recording solution prior to measurement. […] Apical amiloride is used to inhibit the endogenous ENaC currents while forskolin is applied on both apical and basolateral side to stimulate CFTR. Measurements are done during a 20 minute timeframe with recordings every 2 minutes. The increase in Ieq is used as a measure for the increased CFTR activity, EC50 values can be generated by measuring impact of different concentrations of compound on Ieq on primary cells, for this purpose each transwell is treated with a different compound concentration. […] Raw data were normalized to percentage activity values using the equation: 100×(Sample−Negative control)/(Positive control−Negative Control).

Where [1] appears, read: read-out: % Activity at 1 μM (AUC**).

T1 sequence (P13569 with tags, fused parts or gaps DEL508-508): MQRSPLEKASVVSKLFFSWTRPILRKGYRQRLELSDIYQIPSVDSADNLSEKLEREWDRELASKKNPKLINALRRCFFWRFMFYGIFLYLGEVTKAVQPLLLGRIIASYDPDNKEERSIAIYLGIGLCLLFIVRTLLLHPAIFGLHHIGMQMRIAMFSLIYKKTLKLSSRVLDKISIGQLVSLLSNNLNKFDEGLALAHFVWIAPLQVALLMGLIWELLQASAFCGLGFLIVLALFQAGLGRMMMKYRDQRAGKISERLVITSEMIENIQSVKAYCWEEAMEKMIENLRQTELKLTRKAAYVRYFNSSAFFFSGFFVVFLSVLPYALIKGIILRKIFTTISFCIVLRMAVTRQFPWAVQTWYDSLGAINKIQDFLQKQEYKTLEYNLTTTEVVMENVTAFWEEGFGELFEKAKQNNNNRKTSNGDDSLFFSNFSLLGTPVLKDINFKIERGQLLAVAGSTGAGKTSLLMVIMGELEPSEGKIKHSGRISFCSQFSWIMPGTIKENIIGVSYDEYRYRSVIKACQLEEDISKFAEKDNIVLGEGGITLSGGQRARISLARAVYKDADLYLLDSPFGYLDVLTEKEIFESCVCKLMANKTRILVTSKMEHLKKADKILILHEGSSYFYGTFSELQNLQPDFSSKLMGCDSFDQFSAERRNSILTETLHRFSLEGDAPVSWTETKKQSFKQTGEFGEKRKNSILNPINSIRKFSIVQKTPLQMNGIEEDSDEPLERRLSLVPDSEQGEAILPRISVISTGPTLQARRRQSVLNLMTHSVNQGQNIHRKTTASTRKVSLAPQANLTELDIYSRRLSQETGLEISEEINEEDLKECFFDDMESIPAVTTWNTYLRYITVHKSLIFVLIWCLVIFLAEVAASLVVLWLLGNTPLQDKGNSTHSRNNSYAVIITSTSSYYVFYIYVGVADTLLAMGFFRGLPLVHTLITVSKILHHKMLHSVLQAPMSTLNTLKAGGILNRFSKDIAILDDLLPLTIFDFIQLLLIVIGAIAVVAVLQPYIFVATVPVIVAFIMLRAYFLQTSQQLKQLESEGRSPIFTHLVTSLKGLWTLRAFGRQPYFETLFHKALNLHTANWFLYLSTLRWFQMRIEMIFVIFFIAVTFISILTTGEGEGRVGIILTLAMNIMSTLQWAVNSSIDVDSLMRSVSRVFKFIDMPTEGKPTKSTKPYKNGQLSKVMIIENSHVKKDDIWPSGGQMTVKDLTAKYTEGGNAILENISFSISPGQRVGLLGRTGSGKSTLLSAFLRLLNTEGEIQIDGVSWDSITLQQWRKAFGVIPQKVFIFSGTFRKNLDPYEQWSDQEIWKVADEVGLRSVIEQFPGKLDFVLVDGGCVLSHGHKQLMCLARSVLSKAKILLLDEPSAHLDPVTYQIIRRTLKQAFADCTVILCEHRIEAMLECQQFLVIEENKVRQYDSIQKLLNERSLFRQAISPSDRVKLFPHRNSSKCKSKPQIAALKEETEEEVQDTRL
T2 sequence (P13569 with tags, fused parts or gaps DEL508-508): as above

As to `COCCS(=O)(=O)NC(=O)c1cc(-c2ccc(CN3CCOCC3)cc2)c2c(OC(C)C)nn(C3CCCCC3)c2n1` [compound 405], at ΔF508-CFTR, the “% Activation” value was 181.2%.

Regarding `CC(C)Oc1nn(C2CCCCC2)c2nc(C(=O)NS(=O)(=O)N(C)C)cc(-c3ccc(CN4CCOCC4)cc3)c12` [compound 406], at ΔF508-CFTR, the “% Activation” value was determined as 160.8%. The term EC50 denotes the concentration needed to bring the measured effect to its halfway point. Regarding `CC(C)N1CCN(C2CCN(c3cc(C(=O)NS(=O)(=O)N(C)C)nc4c3c(C3CCC3)nn4-c3ccc(F)cc3)CC2)CC1` [compound 382], the EC50 on CFTR ΔF508 was 100 nM. Turning to `COCC1CCN(c2cc(C(=O)NS(=O)(=O)CCO)nc3c2c(C2CCC2)nn3-c2ccccc2)CC1` [Compound 366, 3-cyclobutyl-N-(2-hydroxyethanesulfonyl)-4-[4-(methoxymethyl)piperidin-1-yl]-1-phenyl-1H-pyrazolo[3,4-b]pyridine-6-carboxamide], the activity at 1 µM at CFTR ΔF508 (setting [1]) is 428%.

For `CCS(=O)(=O)N(C)C(=O)c1cc(N2CCC(N3CCOCC3)CC2)c2c(C3CCC3)nn(-c3ccccc3)c2n1` [Compound 658, 3-cyclobutyl-N-(ethanesulfonyl)-N-methyl-4-[4-(morpholin-4-yl)piperidin-1-yl]-1-phenyl-1H-pyrazolo[3,4-b]pyridine-6-carboxamide], the activity at 3 µM at CFTR ΔF508 amounted to 260%.

Consider `CS(=O)(=O)NC(=O)c1cc(N2CCC(CCN3CCOCC3)CC2)c2c(C3CCC3)nn(-c3ccccc3)c2n1` [Compound 331, 3-cyclobutyl-N-(methanesulfonyl)-4-{4-[2-(morpholin-4-yl)ethyl]piperidin-1-yl}-1-phenyl-1H-pyrazolo[3,4-b]pyridine-6-carboxamide], for which the activity at 1 µM on CFTR ΔF508 (setting [1]) turned out to be 537%.

As to `CS(=O)(=O)NC(=O)c1cc(N2CCC(N3CCOCC3)CC2)c2c(C3CCC3)nn(-c3ccccc3)c2n1` [Compound 328, 3-cyclobutyl-N-(methanesulfonyl)-4-[4-(morpholin-4-yl)piperidin-1-yl]-1-phenyl-1H-pyrazolo[3,4-b]pyridine-6-carboxamide], the activity at 1 µM at CFTR ΔF508 (setting [1]) was found to be 532%. Moreover, the activity at 3 µM at CFTR ΔF508 worked out at 423%.

As for `CCS(=O)(=O)NC(=O)c1cc(-c2cnc(N(C)C)nc2)c2c(C3CN(C(=O)OC)C3)nn(C3CCCCC3)c2n1` [compound 52], the EC50 at ΔF508-CFTR came to 11.5 µM.

For the molecule `CC(C)c1nn(C2CCCCC2)c2nc(C(=O)NS(C)(=O)=O)cc(-c3ccc(N4CCC(F)(F)C4)nc3)c12` [compound 64], the EC50 at ΔF508-CFTR was found to be 0.835 µM. As for `CNS(=O)(=O)NC(=O)c1cc(N2CCC(N3CCOCC3)CC2)c2c(C3CCC3)nn(-c3ccc(F)cc3)c2n1` [Compound 517, 3-cyclobutyl-1-(4-fluorophenyl)-N-(methylsulfamoyl)-4-[4-(morpholin-4-yl)piperidin-1-yl]-H-pyrazolo[3,4-b]pyridine-6-carboxamide], the activity at 3 µM on CFTR ΔF508 is 309%. On to `CN(C)S(=O)(=O)NC(=O)c1cc(N2CCC(CN3CCOCC3)CC2)c2c(C3CCC3)nn(-c3ccc(F)cc3)c2n1` [compound 409], for which the “% Activation” value on ΔF508-CFTR stood at 272.74%.

For `COCC1CCN(c2cc(C(=O)NS(C)(=O)=O)nc3c2c(C2CCC2)nn3-c2ccccc2)CC1` [Compound 185, 3-cyclobutyl-N-(methanesulfonyl)-4-[4-(methoxymethyl)piperidin-1-yl]-1-phenyl-1H-pyrazolo[3,4-b]pyridine-6-carboxamide], on CFTR ΔF508 (setting [1]), the activity at 1 µM is 453%. For `COCC1CN(C2CCN(c3cc(C(=O)NS(=O)(=O)N(C)C)nc4c3c(C3CCC3)nn4-c3ccc(F)cc3)CC2)CCO1` (stereo not shown) [Compound 379, 3-cyclobutyl-N-(dimethylsulfamoyl)-1-(4-fluorophenyl)-4-{4-[2-(methoxymethyl)morpholin-4-yl]piperidin-1-yl}-1H-pyrazolo[3,4-b]pyridine-6-carboxamide], the activity at 1 µM on CFTR ΔF508 (setting [1]) was 370%. On to `CN(C)S(=O)(=O)NC(=O)c1cc(C2CCN(CC3CC3)CC2)c2c(C3CCC3)nn(-c3ccc(F)cc3)c2n1` [compound 613], for which the EC50 on ΔF508-CFTR was 10 µM. For `CS(=O)(=O)NC(=O)c1cc(-c2ccc(N3CCC(C#N)CC3)nc2)c2c(C3CCC3)nn(-c3ccccc3)c2n1` [Compound 71, 4-[6-(4-cyanopiperidin-1-yl)pyridin-3-yl]-3-cyclobutyl-N-(methanesulfonyl)-1-phenyl-H-pyrazolo[3,4-b]pyridine-6-carboxamide], on CFTR ΔF508 (read-out: % Activity at 1 μM (Ieq*)), the activity at 1 µM was determined as 270%. For `CN(C)S(=O)(=O)NC(=O)c1cc(OCC2CCOCC2)c2c(C3CCC3)nn(-c3ccccc3)c2n1` [compound 334], the EC50 at CFTR ΔF508 stood at 100 nM.

Regarding `CN(C(=O)c1cc(N2CCC(N3CCOCC3)CC2)c2c(C3CCC3)nn(-c3ccccc3)c2n1)S(C)(=O)=O` [Compound 656, 3-cyclobutyl-N-(methanesulfonyl)-N-methyl-4-[4-(morpholin-4-yl)piperidin-1-yl]-1-phenyl-1H-pyrazolo[3,4-b]pyridine-6-carboxamide], at CFTR ΔF508, the activity at 3 µM came out at 198%. In the case of `CS(=O)(=O)NC(=O)c1cc(N2CCC(N3CCCCC3)CC2)c2c(C3CCC3)nn(-c3ccccc3)c2n1` [Compound 365, 4-([1,4′-bipiperidin]-1′-yl)-3-cyclobutyl-N-(methanesulfonyl)-1-phenyl-1H-pyrazolo[3,4-b]pyridine-6-carboxamide], the activity at 3 µM at CFTR ΔF508 came out at 522%. In the case of `CC(C)N1CCC(c2cc(C(=O)NS(=O)(=O)N(C)C)nc3c2c(C2CCC2)nn3-c2ccc(F)cc2)CC1` [compound 598], the EC50 on ΔF508-CFTR turned out to be 10 µM. Regarding `COCC1CCN(Cc2cc(C(=O)NS(=O)(=O)N(C)C)nc3c2c(C2CCC2)nn3-c2ccc(F)cc2)CC1` [compound 521], on ΔF508-CFTR, the EC50 came to 10 µM. On to `CC(C)Oc1nn(C2CCCCC2)c2nc(C(=O)NS(C)(=O)=O)cc(-c3ccc(C(=O)N4CC5CNCC5C4)cc3)c12` (stereo not shown) [Compound 631, 1-cyclohexyl-4-[4-(hexahydropyrrolo[3,4-c]pyrrole-2(1H)-carbonyl)phenyl]-N-(methanesulfonyl)-3-[(propan-2-yl)oxy]-1H-pyrazolo[3,4-b]pyridine-6-carboxamide], for which the activity at 1 µM at CFTR ΔF508 (setting [1]) amounted to 157%. `COCC1CCN(c2cc(C(=O)N(C)S(C)(=O)=O)nc3c2c(C2CCC2)nn3-c2ccccc2)CC1` [Compound 657, 3-cyclobutyl-N-(methanesulfonyl)-4-[4-(methoxymethyl)piperidin-1-yl]-N-methyl-1-phenyl-1H-pyrazolo[3,4-b]pyridine-6-carboxamide]: the activity at 3 µM on CFTR ΔF508 stood at 358%. Still for that read-out and setting: to `O=C(NS(=O)(=O)N1CCOCC1)c1cc(N2CCC(CN3CCCC3)CC2)c2c(C3CCC3)nn(-c3ccccc3)c2n1` [Compound 380, 3-cyclobutyl-N-(morpholine-4-sulfonyl)-1-phenyl-4-{4-[(pyrrolidin-1-yl)methyl]piperidin-1-yl}-1H-pyrazolo[3,4-b]pyridine-6-carboxamide] belongs 250%. Turning to `O=C(NS(=O)(=O)N1CCOCC1)c1cc(N2CCC(N3CCOCC3)CC2)c2c(C3CCC3)nn(-c3ccccc3)c2n1` [Compound 383, 3-cyclobutyl-N-(morpholine-4-sulfonyl)-4-[4-(morpholin-4-yl)piperidin-1-yl]-1-phenyl-1H-pyrazolo[3,4-b]pyridine-6-carboxamide], the activity at 3 µM on CFTR ΔF508 is 299%.
